The text below walks through data of US12187716B2, “TYK2 kinase inhibitors” (SAREUM LIMITED, priority 2018, dated 2025).

The nature of the series: Hepatocyte stability assay, human. The note with it: both sexes, pooled hepatocytes, 37° C. The class given is in vitro ADME, human (mixed gender). On the procedure: Test and control compounds were incubated with hepatocytes at 37° C. Aliquots were removed at 6 timepoints over a one hour period. Samples were centrifuged and the supernatant fractions analysed for parent compound by mass spectrometry (LC-MS/MS).
The amount of compound remaining (expressed as %) was determined from the MS response in each sample relative to that in the T=0 samples, and used to determine the half-life and intrinsic clearance of the compound.

As to `NC(=O)c1nc(-c2c(Cl)cccc2Cl)oc1Nc1ccc(C(=O)N2CCOCC2)cc1` [Comparative Compound B, 2-(2,6-dichloro-phenyl)-5-[4-(morpholine-4-carbonyl)-phenylamino]-oxazole-4-carboxylic acid amide, reference compound], the intrinsic metabolic clearance (hepatocyte CLint) worked out at 9 µL/min/1e6 cells.
As to `NC(=O)c1nc(-c2c(Cl)cccc2Cl)oc1Nc1ccc(C(=O)N2CCS(=O)(=O)CC2)c(F)c1` [Compound (3)], the hepatocyte CLint is 4.2 µL/min/1e6 cells. Besides, the half-life (read-out: Human T1/2) amounted to 5.58 h.

By hepatocyte CLint is commonly meant the rate of metabolic loss divided by the concentration. A lower hepatocyte CLint goes with greater metabolic stability.
